In ChEMBL document CHEMBL1149799, “Bioactive peroxides as potential therapeutic agents” (Eur J Med Chem, 2008):
In brackets after ≈: the same amount, converted by molar mass.

Assays:
[1] = test system: HL-60; experiment: Cytotoxicity against human HL60 cells at 10 ug/mL; format: functional
[2] = Cytotoxicity against human RPM18226 cells at 10 ug/mL; format: functional; conditions: RPMI-8226
[3] = Cytotoxicity against human WM1341 cells at 10 ug/mL; format: functional
[4] = test system: K562; experiment: Cytotoxicity against human K562 cells at 10 ug/mL; format: functional
[5] = test system: Jurkat; experiment: Cytotoxicity against human Jurkat cells at 10 ug/mL; format: functional
[6] = test system: HCT-116; experiment: Cytotoxicity against human HCT116 cells; format: functional, cell-based
[7] = Cytotoxicity against human K652 cells; format: functional
[8] = test system: SNB-75; experiment: Cytotoxicity against human SNB75 cells; format: functional, cell-based
[9] = Cytotoxicity against human RES MDA-MB-231/ATCC cells; format: functional
[10] = test system: UO-31; experiment: Cytotoxicity against human UO31 cells; format: functional
[11] = Cytotoxicity against mouse Ehrlich Ascites carcinoma by clonogenic assay; format: functional
[12] = test system: 786-0; experiment: Cytotoxicity against human renal 7860 cells by soft agar assay; format: functional
[13] = Cytotoxicity against human RPMI8266 cells; format: functional
[14] = test system: SW-620; experiment: Cytotoxicity against human SW620 cells; format: functional
[15] = test system: NCI-H23; experiment: Cytotoxicity against human NCI-H23 cells; format: functional, cell-based
[16] = test system: T47D; experiment: Cytotoxicity against human T47D cells; format: functional
[17] = test system: IGROV-1; experiment: Cytotoxicity against human IGROV1 cells; format: functional
[18] = test system: SNB-19; experiment: Cytotoxicity against human SNB19 cells; format: functional
[19] = test system: SK-MEL-28; experiment: Cytotoxicity against human SK-MEL-28 cells; format: functional
[20] = test system: HOP-92; experiment: Cytotoxicity against human HOP92 cells; format: functional
[21] = test system: MCF7; experiment: Cytotoxicity against human MCF7 cells; format: functional, cell-based; conditions: Homo sapiens, MCF7; read-out: GI50
[22] = Cytotoxicity against human CCRF-GEM cells; format: functional
[23] = test system: OVCAR-8; experiment: Cytotoxicity against human OVCAR8 cells; format: functional, cell-based
[24] = test system: CAKI-1; experiment: Cytotoxicity against human CAKI1 cells; format: functional
[25] = test system: MOLT-4; experiment: Cytotoxicity against human MOLT4 cells
[26] = test system: DU-145; experiment: Cytotoxicity against human DU145 cells; format: functional, cell-based; conditions: Homo sapiens, DU-145; read-out: GI50
[27] = Cytotoxicity against human CFUGM; format: functional; conditions: CFU-GM
[28] = test system: BT-549; experiment: Cytotoxicity against human BT-549 cells; format: functional
[29] = test system: OVCAR-4; experiment: Cytotoxicity against human OVCAR4 cells; format: functional, cell-based
[30] = test system: SK-OV-3; experiment: Cytotoxicity against human SK-OV-3 cells; format: functional, cell-based
[31] = test system: NCI-H322M; experiment: Cytotoxicity against human NCI-H322M cells; format: functional
[32] = test system: SF-295; experiment: Cytotoxicity against human SF295 cells; format: functional, cell-based
[33] = test system: LOX IMVI; experiment: Cytotoxicity against human LOXI MVI cells; format: functional, cell-based
[34] = test system: SK-MEL-5; experiment: Cytotoxicity against human SK-MEL-5 cells; format: functional
[35] = test system: A498; experiment: Cytotoxicity against human A498 cells; format: functional
[36] = test system: TK-10; experiment: Cytotoxicity against human TK10 cells; format: functional
[37] = test system: OVCAR-5; experiment: Cytotoxicity against human OVCAR5 cells; format: functional, cell-based
[38] = test system: SK-MEL-2; experiment: Cytotoxicity against human SK-MEL-2 cells; format: functional
[39] = test system: COLO 205; experiment: Cytotoxicity against human COLO205 cells
[40] = test system: HT-29; experiment: Cytotoxicity against human HT29 cells; format: functional
[41] = Cytotoxicity against human HB60 cells; format: functional
[42] = test system: OVCAR-3; experiment: Cytotoxicity against human OVCAR-3 cells; format: functional, cell-based
[43] = test system: KM12; experiment: Cytotoxicity against human KM12 cells; format: functional, cell-based
[44] = Cytotoxicity against human MCF7/ADR-RES cells; format: functional; conditions: NCI/ADR-RES
[45] = test system: UACC-62; experiment: Cytotoxicity against human UACC62 cells; format: functional
[46] = test system: SN12C; experiment: Cytotoxicity against human SN12C cells; format: functional
[47] = Cytotoxicity against mouse Ehrlich Ascites carcinoma by […] assay; format: functional
[48] = test system: HCC 2998; experiment: Cytotoxicity against human HCC2998 cells; format: functional, cell-based
[49] = test system: MDA-N; experiment: Cytotoxicity against human MDA-N cells; format: functional
[50] = test system: ACHN; experiment: Cytotoxicity against human ACHN cells; format: functional, cell-based
[51] = test system: HCT-15; experiment: Cytotoxicity against human HCT15 cells; format: functional, cell-based
[52] = test system: U-251; experiment: Cytotoxicity against human U251 cells; format: functional, cell-based
[53] = test system: EKVX; experiment: Cytotoxicity against human EKVX cells; format: functional
[54] = test system: RXF 393; experiment: Cytotoxicity against human RXF393 cells; format: functional
[55] = test system: NCI-H460; experiment: Cytotoxicity against human NCI-H460 cells; format: functional, cell-based; conditions: Homo sapiens, NCI-H460; read-out: GI50
[56] = test system: HOP-62; experiment: Cytotoxicity against human HOP62 cells; format: functional
[57] = test system: A549; experiment: Cytotoxicity against human A549 cells; format: functional, cell-based; conditions: Homo sapiens, A549
[58] = test system: UACC-257; experiment: Cytotoxicity against human UACC257 cells; format: functional
[59] = test system: PC-3; experiment: Cytotoxicity against human PC3 cells; format: functional, cell-based; conditions: Homo sapiens, PC-3
[60] = test system: MDA-MB-435; experiment: Cytotoxicity against human MDA-MB-435 cells; format: functional
[61] = Cytotoxicity against human Hepa59T/VGH cells; format: functional; conditions: HEPA 59T/VGH, read-out: ED50 (the source's name)
[62] = Cytotoxicity against human KB16 cells; format: functional, cell-based
[63] = target: Protein kinase C zeta type (Homo sapiens, UniProt Q05513); experiment: Antagonist activity at protein kinase C zeta; format: functional
[64] = target: Protein kinase C epsilon type (Homo sapiens, UniProt Q02156); experiment: Antagonist activity at protein kinase C epsilon; format: functional
[65] = target: Protein kinase C gamma type (Homo sapiens, UniProt P05129); experiment: Antagonist activity at protein kinase C gamma; format: functional
[66] = test system: EL4; experiment: Cytotoxicity against […] cells; format: functional, cell-based; conditions: Mus musculus
[67] = test system: P388; experiment: Cytotoxicity against mouse P388 cells at 0.05 ug/ml; format: functional
[68] = test system: P388; experiment: Cytotoxicity against mouse P388 cells; format: functional, cell-based; conditions: Mus musculus, P388; read-out: ED50 (the source's name)
[69] = test system: Aspergillus fumigatus; experiment: Antifungal activity against Aspergillus fumigatus; format: functional
[70] = test system: Candida albicans; experiment: Antifungal activity against Candida albicans; format: functional
[71] = test system: KB; experiment: Cytotoxicity against human KB cells; format: functional, cell-based; conditions: Homo sapiens, KB; read-out: ED50 (the source's name)
[72] = Cytotoxicity against human PLC/PRF/5 cells; format: functional; conditions: read-out: ED50 (the source's name)

Protein kinase C zeta type, sequence (Q05513 whole entry): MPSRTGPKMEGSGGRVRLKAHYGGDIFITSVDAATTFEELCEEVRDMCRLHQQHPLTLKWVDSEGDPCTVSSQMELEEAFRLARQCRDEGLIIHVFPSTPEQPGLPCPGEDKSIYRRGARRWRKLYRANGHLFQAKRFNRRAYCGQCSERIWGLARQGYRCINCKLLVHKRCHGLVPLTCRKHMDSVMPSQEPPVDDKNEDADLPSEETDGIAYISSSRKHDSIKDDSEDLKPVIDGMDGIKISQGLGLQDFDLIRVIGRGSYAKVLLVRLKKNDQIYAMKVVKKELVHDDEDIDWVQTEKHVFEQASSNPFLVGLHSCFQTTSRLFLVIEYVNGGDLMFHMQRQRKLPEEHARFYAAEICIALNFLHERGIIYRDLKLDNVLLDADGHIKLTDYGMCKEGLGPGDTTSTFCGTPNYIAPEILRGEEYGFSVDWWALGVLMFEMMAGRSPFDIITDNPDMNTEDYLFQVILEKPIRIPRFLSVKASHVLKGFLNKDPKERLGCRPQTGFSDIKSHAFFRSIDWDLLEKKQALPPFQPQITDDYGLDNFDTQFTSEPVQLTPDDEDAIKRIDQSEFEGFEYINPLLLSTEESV
Protein kinase C epsilon type, sequence (Q02156 whole entry): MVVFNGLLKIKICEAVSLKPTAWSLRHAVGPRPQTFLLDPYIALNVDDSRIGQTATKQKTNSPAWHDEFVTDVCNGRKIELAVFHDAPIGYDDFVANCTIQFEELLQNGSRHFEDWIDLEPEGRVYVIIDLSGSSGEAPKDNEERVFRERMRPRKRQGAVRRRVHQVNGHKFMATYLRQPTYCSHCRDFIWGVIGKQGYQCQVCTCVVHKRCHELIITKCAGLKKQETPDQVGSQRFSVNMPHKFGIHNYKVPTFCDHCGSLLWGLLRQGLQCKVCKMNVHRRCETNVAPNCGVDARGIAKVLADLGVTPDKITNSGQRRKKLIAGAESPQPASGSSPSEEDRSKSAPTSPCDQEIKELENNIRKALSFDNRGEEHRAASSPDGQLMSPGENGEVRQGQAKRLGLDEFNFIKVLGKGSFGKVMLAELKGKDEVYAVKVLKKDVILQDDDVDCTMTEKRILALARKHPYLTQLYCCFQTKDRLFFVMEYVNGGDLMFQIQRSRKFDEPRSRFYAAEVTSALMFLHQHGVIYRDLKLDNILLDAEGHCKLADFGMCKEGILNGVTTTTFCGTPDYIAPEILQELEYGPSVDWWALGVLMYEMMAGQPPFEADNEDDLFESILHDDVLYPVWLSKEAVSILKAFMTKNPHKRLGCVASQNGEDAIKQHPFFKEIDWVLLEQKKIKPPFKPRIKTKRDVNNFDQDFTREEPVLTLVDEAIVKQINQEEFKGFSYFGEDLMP

CC(C)[C@@H](C)/C=C/[C@@H](C)[C@H]1CC[C@@H]2[C@]1(C)CC[C@H]1[C@]23C=C[C@]2(C[C@@H](O[C@@H]4O[C@H](CO)[C@@H](O)[C@H](O)[C@H]4O)CC[C@]12C)OO3
inhibition at 10 µg/mL [1]: 10%
inhibition at 10 µg/mL [2]: 10%
inhibition at 10 µg/mL [3]: 10%
inhibition at 10 µg/mL [4]: 10%
inhibition at 10 µg/mL [5]: 10%

C[C@H]1[C@H](O[C@@H]2O[C@@H]3O[C@]4(C)CC[C@H]5[C@H](C)CC[C@@H]([C@H]2C)[C@@]35OO4)O[C@@H]2O[C@]3(C)CC[C@H]4[C@H](C)CC[C@@H]1[C@@]24OO3
GI50 [6]: 19 nM
GI50 [7]: 68 nM
GI50 [8]: 220 nM
GI50 [9]: 400 nM
GI50 [10]: 63 nM
IC50 [11]: 55600 nM
GI50 [12]: 370 nM
GI50 [13]: 13 nM
GI50 [14]: 43 nM
GI50 [15]: 46 nM
GI50 [16]: 30 nM
GI50 [17]: 1050 nM
GI50 [18]: 1710 nM
GI50 [19]: 12300 nM
GI50 [20]: 121 nM
GI50 [21]: 110 nM
GI50 [22]: 45 nM
GI50 [23]: 90 nM
GI50 [24]: 280 nM
GI50 [25]: 57 nM
GI50 [26]: 5100 nM
IC50 [27]: 3600 nM
GI50 [28]: 58 nM
GI50 [29]: 290 nM
GI50 [30]: 480 nM
GI50 [31]: 10800 nM
GI50 [32]: 590 nM
GI50 [33]: 30 nM
GI50 [34]: 53 nM
GI50 [35]: 11600 nM
GI50 [36]: 240 nM
GI50 [37]: 390 nM
GI50 [38]: 500 nM
GI50 [39]: 44 nM
GI50 [40]: 50 nM
GI50 [41]: 28 nM
GI50 [42]: 460 nM
GI50 [43]: 33 nM
GI50 [44]: 220 nM
GI50 [45]: 81 nM
GI50 [46]: 280 nM
IC50 [47]: 3600 nM
GI50 [48]: 450 nM
GI50 [49]: 590 nM
GI50 [50]: 100 nM
GI50 [51]: 24 nM
GI50 [52]: 65 nM
GI50 [53]: 76 nM
GI50 [54]: 470 nM
GI50 [55]: 68 nM
GI50 [56]: 10200 nM
GI50 [57]: 98 nM
GI50 [58]: 93 nM
GI50 [59]: 15 nM
GI50 [60]: 61 nM

CC(C)[C@]12C=C3[C@](C)(O)CC[C@]3(OO1)[C@@H](C)CC2 [PEROXYGIBBEROL]
EC50 [61]: 8.2 µg/mL (≈ 32.5 µM)

CCCCCCCCCCCCCCCC[C@@]1(OC)C=C[C@@H](CC(=O)OC)OO1 [CHONDRILLIN]
IC50 [62]: 0.74 µg/mL (≈ 1.79 µM)
IC50 [63]: 104000 nM
IC50 [64]: 72700 nM
IC50 [65]: > 364000 nM
IC50 [66]: 0.4 µg/mL (≈ 0.969 µM)
inhibition at 0.05 µg/mL [67]: 50%
EC50 [68]: > 10 µg/mL

CC/C=C/C(CC)C/C=C/[C@@]1(CC)C[C@H](CC)[C@@H](CC(=O)O)OO1 (some centres not stated)
IC90 [69]: 5.6 µg/mL (≈ 16.5 µM)
MIC [70]: 5 µg/mL (≈ 14.8 µM)

CC(C)C(C)/C=C/C(C)[C@H]1CC[C@@H]2[C@]1(C)CC[C@H]1[C@]23C=C[C@]2(C[C@@H](O)CC[C@]12C)OO3 (some centres not stated)
EC50 [71]: 9.97 µg/mL (≈ 23.3 µM)
EC50 [72]: 11 µg/mL (≈ 25.6 µM)
